Laboratory results taken from patent US12441757B2, “Platform for screening NAD+ binding proteins in a cellular context” (OREGON HEALTH & SCIENCE UNIVERSITY, priority 2020, dated 2025).

Legend:
[1] = system: inosine monophosphate dehydrogenase; conditions: cited from earlier work
PARP-1 [2] = target: T1, PARP-1 (Homo sapiens, UniProt P09874); experiment: In vitro PARP-1 auto-PARylation activity assay; assay type: biochemical; conditions: dose response; activated DNA, 50 μM NAD^+, anti-ADPr immunoblot
T1 construct: Full length His6-PARP-1 and His6-SUMO-PARP-10 proteins we expressed and purified; His6 (N); made in house
Procedure: FIG. 5. A clickable NAD^+ PAL probe (2-ad-BAD) inhibits PARP-1 and PARP-10 activity in concentration response. (FIG. 5A) 50 nM of recombinant His6-PARP-1 was incubated with 10 μg/mL activated DNA in 100 mM NaCl, 50 mM HEPES [pH 7.4], 4 mM MgCl2, 0.2 mM TCEP for 10 min, then treated with indicated competitor (BAD or the PARP-1 inhibitor NMS-P118) for additional 10 min. 50 μM NAD^+ was then added to initiate auto-PARylation of PARP-1. After 10 min, the reaction was quenched by addition of 4× Laemmli sample buffer and boiling at 95° C. for 5 min. Protein samples were separated by SDS-PAGE, transferred onto nitrocellulose and probed with indicated antibodies. (FIG. 5B) Experiments were performed essentially as in (5A) with the exception that damaged DNA was omitted and the PARP-10 inhibitor ITK6 was used instead of NMS-P118. (FIG. 5C) Densitometry analyses of (5A) and (5B) comparing inhibitory effect of BAD on PARP-1 and PARP-10 auto-ADP-ribosylation. Data are mean±SEM of 3 independent experiments. […]
Samples were run on 10% or 12% acrylamide gels for ˜1 h at 180 V in Mini-PROTEAN Tetra cell (Biorad). […] Band intensities we quantified with ImageJ.

PARP-1 [3] = target: T1, PARP-1; experiment: Competition labeling of PARP-1 by 2-ad-BAD; assay type: binding
Excerpt: FIG. 8. Densitometry analyses of FIG. 3A panels (A,B) comparing the inhibitory effect of nucleotides and (B) panels (C,D) comparing inhibitory effect of PARP inhibitors on PARP-1 and PARP-10 labelling by 2-ad-BAD. TAMRA in-gel fluorescence was normalized to Coomassie staining, except for PARP-1 NAD^+ treated samples where relative to control TAMRA signal is reported due to auto-PARylation induced molecular weight shift and therefore not detectable Coomassie signal at PARP-1 molecular weight of ˜110 kDa. Data are mean±SEM of 3 independent experiments.
Treatments. Recombinant PARP-1 (250 nM), PARP-10 (250 nM) or AK1 (500 nM; Novus Biologicals) were diluted in 100 mM NaCl, 50 mM HEPES [pH 7.4], 4 mM MgCl2, 0.2 mM TCEP. PARP-1 reactions also contained 10 μg/mL of activated calf thymus DNA (Sigma-Aldrich D4522), unless otherwise noted. In experiments reported in FIG. 2, the samples were treated with 0.1 μM 2-ad-BAD or ad-olaparib for 10 min. In competition experiments reported in FIG. 3 and Figure S3, samples were first treated with 150 μM of indicated nucleotides for 10 minute and then with 0.3 μM 2-ad-BAD for additional 10 min. All treatments occurred at RT. Samples were then kept in the dark or irradiated for 5 min in the RPR-100 Photochemical Reactor (Rayonet) equipped with 350 nm lamps at 4° C.
Click Chemistry. 25 μL of each sample was mixed with 5 μL of fatty acid free BSA and SDS to give a final Click reaction concentration of 1 mg/mL and 1%, respectively. Click reactions were started by adding 15 μL of PBS based 3× click reaction mix (final 1× concentrations shown): 100 μM Tris[(1-benzyl-1H-1,2,3triazol-4-yl)methyl]amine (TBTA, Click Chemistry Tools), 1 mM CuSO4, 40 μM tetramethylrhodamine (TAMRA)-azide (Click Chemistry Tools), 1 mM Tris(2-carboxyethyl)phosphine hydrochloride (TCEP, Thermo Fisher) and 5% tert-Butyl alcohol to each sample, and let to proceed for 1 h at RT while gently shaking. Reactions were stopped by adding 4× Laemmli sample buffer and boiling at 95° C. for 5 min.
In gel fluorescence and staining. Samples were loaded to 10 or 12% SDS-polyacrylamide gels and run until the dye front left the gel. In-gel fluorescence was detected with ChemiDoc XRS+ (Biorad) using Rhodamine filter and then the gels were stained with Coomassie blue or Silver using standard protocols.

PARP-1 [4] = target: T1, PARP-1; conditions: cited from earlier work

T1 sequence (P09874 whole entry): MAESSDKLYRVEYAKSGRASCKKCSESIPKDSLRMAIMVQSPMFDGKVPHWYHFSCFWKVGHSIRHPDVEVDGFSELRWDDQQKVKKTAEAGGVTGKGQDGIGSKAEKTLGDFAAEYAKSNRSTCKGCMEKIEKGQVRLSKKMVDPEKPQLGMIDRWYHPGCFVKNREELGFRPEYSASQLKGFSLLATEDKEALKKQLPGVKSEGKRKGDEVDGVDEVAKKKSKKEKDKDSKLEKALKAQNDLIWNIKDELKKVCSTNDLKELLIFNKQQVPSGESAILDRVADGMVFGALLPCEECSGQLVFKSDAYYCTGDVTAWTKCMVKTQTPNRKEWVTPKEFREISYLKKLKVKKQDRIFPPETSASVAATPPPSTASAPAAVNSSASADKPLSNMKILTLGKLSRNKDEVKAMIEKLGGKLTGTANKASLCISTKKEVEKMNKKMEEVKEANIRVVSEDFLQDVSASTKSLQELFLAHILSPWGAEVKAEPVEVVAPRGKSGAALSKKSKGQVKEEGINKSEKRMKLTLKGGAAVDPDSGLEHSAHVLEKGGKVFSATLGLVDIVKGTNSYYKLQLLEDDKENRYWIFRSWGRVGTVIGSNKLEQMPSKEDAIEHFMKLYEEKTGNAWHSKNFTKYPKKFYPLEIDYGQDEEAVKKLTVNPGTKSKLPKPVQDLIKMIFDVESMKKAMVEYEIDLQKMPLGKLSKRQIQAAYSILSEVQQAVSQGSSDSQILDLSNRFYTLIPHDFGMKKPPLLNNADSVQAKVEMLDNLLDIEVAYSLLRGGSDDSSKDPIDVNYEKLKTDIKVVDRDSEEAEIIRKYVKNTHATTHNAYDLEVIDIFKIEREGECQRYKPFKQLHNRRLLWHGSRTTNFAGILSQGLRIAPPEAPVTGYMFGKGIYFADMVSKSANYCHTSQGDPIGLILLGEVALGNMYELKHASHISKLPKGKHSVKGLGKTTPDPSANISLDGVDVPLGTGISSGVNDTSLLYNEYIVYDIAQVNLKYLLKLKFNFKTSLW

For NC(=O)c1cccc([C@@H]2O[C@H](COP(=O)(O)OP(=O)(O)OC[C@H]3O[C@@H](n4cnc5c(N)ncnc54)[C@H](O)[C@@H]3O)[C@@H](O)[C@H]2O)c1 [BAD, benzamide adenine dinucleotide], the “binding to and inhibition of NAD^+/NADH binding enzymes (e.g., inosine monophosphate dehydrogenase)” value [1] is listed as “binds to and inhibits”, the “inhibition of PARP-1 auto-PARylation” value (PARP-1 [2]) is listed as “inhibited” and the “block of 2-ad-BAD labeling of PARP-1 by nucleotides” value (PARP-1 [3]; 150 μM nucleotide, 0.3 μM 2-ad-BAD) is listed as “reduced”. The “dose-dependent block of 2-ad-BAD labeling of PARP-1” value (PARP-1 [3]; competitor dose series) was “dose-dependently block the labeling of PARP-1”, the “DNA dependence of binding to PARP-1” value (PARP-1 [4]) was “DNA-dependent” and the “binding to PARP-1 and inhibition of its enzymatic activity” value (PARP-1 [4]) was “binds to PARP-1 and inhibits its enzymatic activity”.
